The test system of series [1] is hepatocytes. Description: Metabolic profiling of imaging agents in cryopreserved hepatocytes (HPLC with radiodetection). The conditions noted are these: hepatocytes 1×10^6 cells/mL, 37° C./5% CO2; species and incubation time not given. It counts as in vitro ADME. On the procedure: Cryopreserved hepatocytes were purchased from Celsis/In Vitro Technologies, Inc. (Baltimore, Md.) and stored at −150° C. prior to use. Multiple lots of hepatocytes for human (mixed sexes 5-donor pool), primate (male, rhesus monkey), dog (male, beagle), rabbit (male, New Zealand white) and rat (male, Sprague-Dawley) were used. On the day of the study, hepatocytes in cryopreserved vials were vented to release any liquid N2 then placed into a 37° C. water bath for 75-90 seconds to thaw. The hepatocytes were transferred into pre-warmed KHB and centrifuged for 5 min at 50×g. The supernatant was discarded and the hepatocytes re-suspended in KHB at a concentration of 1×10^6 cells/mL. Cell viability was confirmed by Trypan blue exclusion.
Test compounds were incubated in hepatocytes (1×10^6 cells/mL; 0.5 mL) were incubated for 0, 15, 30, 60 or 180 min at 37° C./5% CO2 then transferred directly into acetonitrile (1.0 mL), vortexed for 30 s and centrifuged at 2500×g for 20 min. The supernatant was then transferred to a new centrifuge tube, acetonitrile evaporated under a stream of nitrogen in a heating block at 37° C. and, following re-constitution in water, assayed by HPLC with radiodetection.
Extracted samples and standards were analyzed on an Agilent 1100 HPLC (Agilent Technologies, Burlington, Mass.) using a Phenomenex Luna C18 column (5μ; 4.6×150 mm), maintained at ambient temperature (25° C.), and a flow rate of 1.0 mL/min. Mobile phase A contained 0.1% formic acid in water, and mobile phase B contained 0.1% formic acid in acetonitrile. A linear gradient from 5 to 90% B over 15 min was used for elution. A 5 min post-time of 5% B was used to re-equilibrate the column. Radioactive products were recorded using in-line γ- or β-flow detectors (INUS, Tampa, Fla.).

Series [2] can be described thus: Tissue distribution of 18F imaging agents in rats. In kind it is in vivo, Male Sprague Dawley rats. The conditions noted are these: rat, iv tail vein ~15 μCi, ± SEM. On the procedure:
Anesthetized (sodium pentobarbital at 50 mg/kg, ip or isoflurane gas inhalation) Male Sprague Dawley rats (250-350 g) received an iv injection of the imaging agent (˜15 μCi) via the tail vein. At 15 or 60 min post injection, the animals were euthanized and the required tissue samples harvested. All samples were then weighed and counted for radioactivity (Wallac Wizard 1480 or Packard Cobra II Autogamma); regional tissue uptake of the imaging agent was thus expressed as a percentage of the total injected dose per gram of tissue (% ID/g).
The generic structure depicted below highlights specific structural features evaluated during distribution experiments.

`CC(C)n1ncc(OCc2ccc(COCCF)cc2)c(Cl)c1=O` [Example 1, 4-chloro-5-((4-((2-fluoroethoxy)methyl)benzyl)oxy)-2-isopropylpyridazin-3(2H)-one]: the “% Parent Remaining” value in series [1] worked out at 20%.

As for `CC(C)(C)n1ncc(OCc2ccc(C(=O)OCCF)cc2)c(Cl)c1=O` [Example 45, 2-fluoroethyl 4-(((1-(tert-butyl)-5-chloro-6-oxo-1,6-dihydropyridazin-4-yl)oxy)methyl)benzoate], the “% Parent Remaining” value in series [1] is given as 19%.

`[2H]C([2H])(OCCF)c1ccc(COc2cnn(C(C)(C)C)c(=O)c2Cl)cc1` [Example 9, 2-(tert-butyl)-4-chloro-5-((4-((2-fluoroethoxy)-d2-methyl)benzyl)oxy)pyridazin-3(2H)-one]: the “% Parent Remaining” value in series [1] amounted to 73%.

For the compound `CC(C)(C)n1ncc(OCc2ccc(OCCCF)c(Cl)c2)c(Cl)c1=O` [Example 25, 2-(tert-butyl)-4-chloro-5-((3-chloro-4-(3-fluoropropoxyl)benzyl)oxy)pyridazin-3(2H)-one], the “% Parent Remaining” value in series [1] was 71%.

Turning to `CC(C)(C)n1ncc(OCc2ccc(C(=O)OCCCF)cc2)c(Cl)c1=O` [Example 57B, 3-fluoropropyl 4-(((1-(tert-butyl)-5-chloro-6-oxo-1,6-dihydropyridazin-4-yl)oxy)methyl)benzoate], in series [1], the “% Parent Remaining” value is reported as 31%.

Take `CC(C)(C)n1ncc(OCc2ccc(-c3cnc(F)nc3)cc2)c(Cl)c1=O` [Example 48C, 2-(tert-butyl)-4-chloro-5-((4-(2-fluoropyrimidin-5-yl)benzyl)oxy)pyridazin-3(2H)-one]: in series [1], the “% Parent Remaining” value came to 95%.

For the compound `CC(C)(C)n1ncc(OCc2ccc([Si](F)(C(C)(C)C)C(C)(C)C)cc2)c(Cl)c1=O` [Example 62B, 2-(tert-butyl)-4-chloro-5-((4-(di-tert-butylfluorosilyl)benzyl)oxy)pyridazin-3 (2H)-one], in series [1], the “% Parent Remaining” value was 98%.

In the case of `CC(C)(C)n1ncc(OCc2cccc(COCCF)c2)c(Cl)c1=O` [Example 35, 2-(tert-butyl)-4-chloro-5-((3-((2-fluoroethoxy)methyl)benzyl)oxy)pyridazin-3(2H)-one], the “% Parent Remaining” value in series [1] amounted to 30%.

Consider `CC(OCCF)c1ccc(COc2cnn(C(C)(C)C)c(=O)c2Cl)cc1` (centres unmarked) [Example 16, 2-(tert-butyl)-4-chloro-5-((4-(1-(2-fluoroethoxyl)ethyl)benzyl)oxy)pyridazin-3(2H)-one], for which, in series [1], the “% Parent Remaining” value is 20%.

As to `CC(C)(C)n1ncc(OCc2ccc(C#CCCF)cc2)c(Cl)c1=O` [Example 43, 2-(tert-butyl)-4-chloro-5-((4-(4-fluorobut-1-yn-1-yl)benzyl)oxy)pyridazin-3(2H)-one], the “% Parent Remaining” value in series [1] was found to be 63%.

With `CC(OCCF)c1ccc(COc2cnn(C(C)(C)C)c(=O)c2Cl)cc1` (centres unmarked) [Example 67G], in series [2] (15 min post injection), the “Blood, imaging agent distribution at 15 min” value (“Blood … at 15 min” for short) is listed as 0.50 ± 0.18 % ID/g; the “Brain, imaging agent distribution at 15 min” value (from here on “Brain … at 15 min”) is listed as 0.59 ± 0.03 % ID/g; the “Femur, imaging agent distribution at 15 min” value (from here on “Femur … at 15 min”) is 0.40 ± 0.05 % ID/g; the “Heart, imaging agent distribution at 15 min” value (from here on “Heart … at 15 min”) was 2.19 ± 0.36 % ID/g. Besides, in series [2] (15 min post injection), the “Kidney, imaging agent distribution at 15 min” value (from here on “Kidney … at 15 min”) is 0.88 ± 0.05 % ID/g; the “Liver, imaging agent distribution at 15 min” value (shortened to “Liver … at 15 min”) was found to be 0.33 ± 0.10 % ID/g; the “Lung, imaging agent distribution at 15 min” value (shortened to “Lung … at 15 min”) is 0.46 ± 0.12 % ID/g; the “Muscle, imaging agent distribution at 15 min” value (from here on “Muscle … at 15 min”) was found to be 0.35 ± 0.04 % ID/g. Besides, in series [2] (15 min post injection), the “Pancreas, imaging agent distribution at 15 min” value is listed as 0.41 ± 0.03 % ID/g and the “Spleen, imaging agent distribution at 15 min” value (shortened to “Spleen … at 15 min”) stood at 0.32 ± 0.11 % ID/g. Besides, in series [2] (60 min post injection), the “Blood, imaging agent distribution at 60 min” value stood at 0.47 ± 0.04 % ID/g; the “Brain, imaging agent distribution at 60 min” value came to 0.39 ± 0.05 % ID/g; the “Femur, imaging agent distribution at 60 min” value is 0.58 ± 0.06 % ID/g; the “Heart, imaging agent distribution at 60 min” value stood at 0.98 ± 0.16 % ID/g. Also, in series [2] (60 min post injection), the “Kidney, imaging agent distribution at 60 min” value is given as 0.44 ± 0.02 % ID/g; the “Liver, imaging agent distribution at 60 min” value is given as 0.32 ± 0.03 % ID/g; the “Lung, imaging agent distribution at 60 min” value stood at 0.38 ± 0.03 % ID/g; the “Muscle, imaging agent distribution at 60 min” value stood at 0.33 ± 0.01 % ID/g. For the same compound, in series [2] (60 min post injection), the “Pancreas, imaging agent distribution at 60 min” value is on record as 0.26 ± 0.01 % ID/g and the “Spleen, imaging agent distribution at 60 min” value worked out at 0.28 ± 0.03 % ID/g.

As for `Cc1c(OCc2ccc(COCCF)cc2)cnn(C(C)(C)C)c1=O` [Example 40], the “% Parent Remaining” value in series [1] worked out at 34%.

On to `CC(C)(C)n1ncc(OCc2ccc(OCCF)cc2)c(Cl)c1=O` [Example 67D], for which, in series [2] (15 min post injection), the “Blood … at 15 min” value was 1.11 % ID/g; the “Brain … at 15 min” value worked out at 0.74 % ID/g; the “Femur … at 15 min” value came out at 0.21 % ID/g; the “Heart … at 15 min” value was 3.63 % ID/g. In addition, in series [2] (15 min post injection), the “Kidney … at 15 min” value is recorded as 3.81 % ID/g; the “Liver … at 15 min” value was 3.61 % ID/g; the “Lung … at 15 min” value is 1.00 % ID/g; the “Muscle … at 15 min” value came to 0.14 % ID/g. Moreover, the “Spleen … at 15 min” value in series [2] (15 min post injection) came out at 0.37 % ID/g. For the same compound, in series [2] (60 min post injection), the “Blood, imaging agent distribution at 60 min” value came to 1.00 % ID/g; the “Brain, imaging agent distribution at 60 min” value was determined as 0.69 % ID/g; the “Femur, imaging agent distribution at 60 min” value is listed as 0.26 % ID/g; the “Heart, imaging agent distribution at 60 min” value is on record as 4.66 % ID/g. For the same compound, in series [2] (60 min post injection), the “Kidney, imaging agent distribution at 60 min” value is given as 1.71 % ID/g; the “Liver, imaging agent distribution at 60 min” value is on record as 1.49 % ID/g; the “Lung, imaging agent distribution at 60 min” value worked out at 0.96 % ID/g; the “Muscle, imaging agent distribution at 60 min” value is on record as 0.18 % ID/g. Moreover, the “Spleen, imaging agent distribution at 60 min” value in series [2] (60 min post injection) amounted to 0.23 % ID/g.

In the case of `CC(C)(C)n1ncc(CCc2ccc(COCCF)cc2)c(Cl)c1=O` [Example 61], the “% Parent Remaining” value in series [1] is 6%.

Regarding `CC(C)(C)n1ncc(OCc2ccc([Si](F)(C(C)(C)C)C(C)(C)C)cc2)c(Cl)c1=O` [Example 67N], in series [2] (15 min post injection), the “Blood … at 15 min” value was 0.22 ± 0.04 % ID/g; the “Brain … at 15 min” value stood at 0.03 ± 0.00 % ID/g; the “Femur … at 15 min” value is 0.14 ± 0.02 % ID/g; the “Heart … at 15 min” value was found to be 0.65 ± 0.09 % ID/g. Moreover, in series [2] (15 min post injection), the “Kidney … at 15 min” value is reported as 0.51 ± 0.09 % ID/g; the “Liver … at 15 min” value is listed as 4.91 ± 0.49 % ID/g; the “Lung … at 15 min” value amounted to 1.31 ± 0.24 % ID/g; the “Muscle … at 15 min” value worked out at 0.06 ± 0.00 % ID/g. Also, the “Spleen … at 15 min” value in series [2] (15 min post injection) turned out to be 3.47 ± 0.80 % ID/g.
